Results reported in patent US12605358B2, “Composition for preventing or treating nervous system diseases comprising compound that inhibits mTOR signaling pathway as active ingredient” (ALIAD BIOPHARMA, priority 2021, dated 2026).

Columns and labels:
[1] = tested on: 5xFAD transgenic mice; assay: NFT removal, AT8/MAP2 staining of brain slices; format: in vivo
Method: (§1) 5xFAD animals were administered with HN-1703 at three doses for 14 days to male heterozygotes aged 6 months (all born within 3 days). The behaviors of mice were measured in a dark cycle in which the mice were active while alternating light and dark in a 12-hour cycle in a breeding room chamber, and the mice were freely accessible to food and water and bred in compliance with experimental animal ethical guidelines of Kyung Hee University. In each group, the HN-1703 was intraperitoneally injected at the same time once a day in a volume of 100 μl to 12 mice in a normal group (wild type littermate), 9 5xFAD mice in a vehicle (DMSO administration), 8 5xFAD mice in a 5 mg/kg administered group, 9 5xFAD mice in a 10 mg/kg administered group, and 9 5xFAD mice in a 20 mg/kg administered group. […] In a behavioral measurement room, humidity (40 to 60%) and temperature (22 to 26° C.) were maintained, and reflected light was maintained to avoid sound and light effects. Behavioral measures were measured in Y-maze, Morris Water Maze, and Passive Avoidance test for 18 days in sequence.
A brain slice immunostaining method was modified and used as described in Heo H et al. (J Ethnopharmacol, 2009). Mice were transcardially perfused with 4% PFA. After being immersed and fixed in 4% PFA for 4 hours, the brain tissue was unfrozen in 30% sucrose, frozen in an optimal cutting temperature (OCT) mixture, and stored at −80° C. Brain tissue slices were sectioned in a coronal direction at a thickness of 35 μm. The brain tissue slices were immersed in a storage solution (30% glycerol, 30% ethylene glycol, PBS) and stored at 4° C. The stored brain slices were permeabilized in 0.5% Triton X-100 for 20 minutes and shaken in 2 N HCl for 30 minutes at 37° C. Then, the brain slices were blocked in a free-floating state for 2 hours in 15% standard serum, 3% bovine serum albumin (BSA, bio-WORLD, Dublin, OH, USA) and 0.1% Triton X-100. The slices were shaken with a first antibody for 16 hours at 4° C. […]

[2] = target: T1, mTORC1 (Homo sapiens, UniProt P42345); assay: mTORC1 inhibition, immunoblot of S6K Thr389 phosphorylation in HeLa cells; format: cell-based; details: at 40 µM, FIG. 2A
T1 construct: endogenous in cells; host or cells: HeLa
Method: HeLa cells were cultured in DMEM (Dulbesco's Modified Eagles Media) containing 10% FBS, penicillin (100 units/ml), and streptomycin (100 μg/ml) at 37° C. in a 5% CO2 incubator. Culture was started by seeding 4×10^5 cells in a 100 mm culture dish, and subcultured every 3 days.
Immunoblot analysis was performed by the following method. SDS-PAGE-developed proteins were electroblotted and transferred and a PVDF membrane was blocked by shaking for 1 hour in a TBS-T buffer (20 mM Tris, 137 mM NaCl, 0.1% Tween 20) containing 5% skim milk. The membrane was repeatedly washed with a TBS-T buffer three times for 5 minutes, and reacted with a first antibody diluted in a TBS-T buffer containing 5% skim milk or 5% BSA overnight at 4° C. Thereafter, the membrane was repeatedly washed with a TBS-T buffer three times for 5 minutes, and reacted with a second antibody diluted in a TBS-T buffer containing 5% skim milk for 30 minutes at room temperature. The membrane was repeatedly washed with a TBS-T buffer containing 5% skim milk five times for 5 minutes, and then protein bands bound to the second antibody were detected by a chemiluminescence method. […]

[3] = tested on: 5xFAD transgenic mice; assay: Autophagy indicators in brain (LC3/GFAP and LC3/MAP2 staining, LC3 immunoblot); format: in vivo
Method: as §1
A brain slice immunostaining method was modified and used as described in Heo H et al. (J Ethnopharmacol, 2009). Mice were transcardially perfused with 4% PFA. After being immersed and fixed in 4% PFA for 4 hours, the brain tissue was unfrozen in 30% sucrose, frozen in an optimal cutting temperature (OCT) mixture, and stored at −80° C. Brain tissue slices were sectioned in a coronal direction at a thickness of 35 μm. The brain tissue slices were immersed in a storage solution (30% glycerol, 30% ethylene glycol, PBS) and stored at 4° C. The stored brain slices were permeabilized in 0.5% Triton X-100 for 20 minutes and shaken in 2 N HCl for 30 minutes at 37° C. Then, the brain slices were blocked in a free-floating state for 2 hours in 15% standard serum, 3% bovine serum albumin (BSA, bio-WORLD, Dublin, OH, USA) and 0.1% Triton X-100. The slices were shaken with a first antibody for 16 hours at 4° C. Thereafter, a second antibody complementary to the first antibody was attached at room temperature (22±1° C.) for 45 minutes. Then, the nuclei were washed with physiological saline (PBS) containing 1 μg/ml PI (propidiumiodide, Sigma) or DAPI (1:4000), and then placed on a slide glass and sealed using an aqueous mount, and observed under a confocal scanning microscope for tissue observation (LSM 810 Carl Zeiss, Oberkochen, Germany).
The first antibody used antibodies such as LC3-II (MBL, PM036), MAP2 (sigma, m4403) [for LC3/MAP2 double staining], 6E10 (biolegend, 803001) [for LC3/6E10; ICC double staining], GFAP (abcam, ab53554) [for LC3/GFAP double staining], Iba-1 (wako, 011-27991) [for LC3/IBA1 double staining], Iba-1 (Wako, 019-19741) [for ThioS/Iba1/PI triple staining], Sox2 (R&D system, MAB2018) [for SOX2/DCX/NeuN triple staining], DCX (Santa Cruz, sc8066) [for SOX2/DCX/NeuN triple staining], AT8 (Invitrogen, MN1020) [for AT8/MAP2 double staining], MAP2 (abcam, ab32454) [for AT8/MAP2 double staining], NeuN (Millipore, MAB377B), Tuj1 (Sigma, T8660), Nestin (Millipore, MAB353), GFAP (Chemicon), and the like, and the second antibody used Alexa 488, Cy3, Alexa 488 (Invitrogen, A21202), Cy3 (Jackson lab, 715-165-151), and Alexa 488 (Jackson lab, 711-546-152).
When PS1 was KO, lysosome acidification was weakened and autophagy was inhibited (Lee et al. (2010) Cell 141: 1146-1158), and in 5xFAD mice with mutations in PS1, the generation of autophagy was somewhat attenuated and may be activated in the presence of endogenous WT PS1. In other words, there were example in which cellular conditions that inhibit mTOR, such as lack of amino acids, or suppression of inflammation activated autophagy, and treatment with a cAMP or β-adrenergic agonist restored lysosomal acidification in PS1 mutant cells (Coffey et al. (2014) Neuroscience 263: 111-124). […]

COc1cc(OC)c2c(=O)c3cc4c(cc3oc2c1)OCO4 [HN-1703, 7,9-dimethoxy-10H-[1,3]dioxolo[4,5-b]xanthen-10-one]
decrease of NFTs compared to the 5xFAD-DMSO group ([1]; 20 mg/kg, dentate gyrus, FIG. 9): ≥ 70%
NFT (AT8 staining) ([1]; 5 to 20 mg/kg, all three brain regions examined, FIG. 9): decreased in a dose-dependent manner
number of neurons stained with NFT (AT8+/MAP2+) ([1]; dentate gyrus, FIG. 10): decreased in a dose-dependent manner
inhibition of mTORC1 activity (S6K Thr389 phosphorylation) compared to the control group [2]: 48%
LC3-II staining ([3]; 5 mg/kg to 10 mg/kg, FIG. 12): stained at the level of a WT normal group
LC3-II increase compared to the 5xFAD-DMSO control group ([3]; 20 mg/kg, FIG. 12): 2.5 times
LC3-II increase compared to the WT normal group ([3]; 20 mg/kg, FIG. 12): 1.4 times
LC3-II staining in the axon of the hippocampal pyramidal neuron ([3]; 20 mg/kg, FIG. 13): recovered to the level of the WT normal group
autophagic vacuoles near the nuclei of large neurons in the subgranular cell layer of the hippocampus ([3]; FIG. 14): significantly increased
ratio of the autophagy activation marker LC3-II/LC3-I (brain immunoblot) ([3]; FIG. 15): increased
LC3-II staining ([3]; hippocampal dentate gyrus, compared to a 5xFAD-DMSO control group, FIG. 12): increased in a dose-dependent manner
astrocytes stained with the GFAP antibody ([3]; increased in 5xFAD-DMSO vs WT, FIG. 12): decreased to a normal level
